Key:
PMN cyclic AMP = test: Measurement of PMN cyclic AMP concentration (human PMN, FMLP-stimulated); format: cell-based; conditions: 4×10^-8 M FMLP, control 100, expressed as percentage of vehicle control, read-out: % elevation of cAMP at 1 μM (control 100)
Experimental: 1. Preparation of human PMN
Blood was taken from healthy subjects by venous puncture and neutrophils were purified by dextran sedimentation and resuspended in the buffered medium.
3. Measurement of PMN cyclic AMP concentration
The compounds according to the invention were incubated with 3.7×10^6 PMN for 5 min at 37° C. before addition of 4×10^-8 M FMLP. After 6 min protein was precipitated by the addition of 1% v/v conc. HCl in 96% v/v ethanol containing 0.1 mM EDTA. After centrifugation the ethanolic extracts were evaporated to dryness under N2 and resuspended in 50 mM Tris/HCl pH 7.4 containing 4 mM EDTA. The cyclic AMP concentration in the extracts was determined using a cyclic AMP binding protein assay supplied by Amersham International plc. Cyclic AMP concentrations were expressed as percentage of vehicle containing control incubations.

[1] = test system: FMLP-induced skin oedama of guinea pigs; test: Effect of intravenously administered compounds on the FMLP-induced skin oedema of guinea pigs; format: in vivo; conditions: guinea pig, 1 mg/kg
Experimental: 5. Effect of intravenously administered compounds on the FMLP-induced skin oedama of guinea pigs.
Guinea-pigs (600-800 g) were anaesthetized with pentobarbitone sodium (40 mg/kg, i.p.) and injected (i.V.) with a 0.5 ml mixture of pentamine sky blue (5% W/V) and ^125 I-HSA ([…]). 10 minutes later 3 intradermal injections of FMLP (10 μg/site), 1 injection of histamine (1 μg/site) and 1 injection of vehicle (100 μl of 0.2% DMSO V/V in Hanks Buffered salt solution) were made on the left hand side of the animal (preinjection sites). 5 minutes later the drug (1 ml/kg) or the vehicle (50% PEG 400 V/V in distilled water, 1 ml/kg) was administered (i.V.). 10 minutes later an identical pattern of intradermal injections was made on the opposite flank of the animal (post-injection sites). These responses were allowed to develop for 15 minutes before the animal was sacrificed and a blood sample taken.
Skin sites and plasma samples were counted for 1 minute on a gamma counter and the degree of oedema calculated as μl plasma/skin site. Statistical analysis was done by a paired t-test on the mean of the 3 pre-injection site values of μl plasma obtained for FMLP/animal. The percentage inhibition of drug or vehicle was calculated as follows [formula]

[2] = test system: FMLP-induced skin oedema of guinea-pigs; test: Effect of orally administered compounds on the FMLP-induced skin oedema of guinea-pigs in vivo; conditions: guinea pig, 25 mg/kg
Experimental: 6. Effect of orally administered compounds on the FMLP-induced skin oedema
of guinea-pigs in vivo-Test's p.o.
Guinea-pits (600-800 g) were fasted overnight and orally treated with vehicle ([…]; […]) 40 minutes later the animals were anasthetized with pentobarbitone sodium (40 mg/kg; i.p.) and 0.6 ml of a mixture of pontamine sky blue (5% w/v) and ^125 I-HSA (1 μci/animal) was injected (i.V.). 90 minutes after oral pretreatment FMLP (50 μg/site) was injected (i.d.) at 4 different sites, histamine (1 μg/site) and vehicle (100 μl, 1% DMSO v/v in Hanks buffered salt solution) were both injected (i.d.) at 2 different sites.
The responses were allowed to develop for 30 minutes before the animal was sacrificed and a blood sample taken.
Skin sites and plasma samples were counted for 1 minute on a gamma counter. The degree of oedema was calculated as μl plasma/skin site.
Statistical analysis was carried out by a Mann-Whitney U-test on the mean of the 4 values of μl Plasma obtained for FMLP/animal.

SMILES: COC(=O)CCc1c(C(=O)c2ccc(Cl)cc2)oc2cc(O)ccc12 [Example 30]
- activity at 1 µM (PMN cyclic AMP): 394%
- % inhibition (FMLP-induced skin oedema, i.v.) [1]: 40.0%
- % inhibition (FMLP-induced skin oedema, p.o.) [2]: 46%

From patent US5504213A, “Benzofuranyl-and-thiophenyl-alkanecarboxyclic acid derivatives” (Bayer Aktiengesellschaft, priority 1993, dated 1996)
